One test deals with HLA-DR4 transgenic mice. Briefly: Immunization of HLA-DR4 transgenic mice with MycHSP70, serum antibody titers by ELISA. The class given is in vivo, mouse. The note with it: 100 μg MycHSP70 with complete Freund's adjuvant subcutaneously. As for the experimental part:
(§1) Figure 5 Immunization of HLA-DR4 transgenic mice with MycHSP70. (A) HLA-DR4 transgenic mice were immunized with recombinant MycHSP70. Serum anti-MycHSP70 and anti-mouse BiP antibody titers were measured in the 21 days following the first immunization. (B) Splenic CD4+ T cell proliferation from MycHSP70-immunized HLA-DR4 transgenic mice in response to MycHSP70_287–306 and BiP336–355 epitopes. Proliferation was determined by the incorporation of [3]-H thymidine. Data were representative of at least three independent trials. ***p < 0.001.
Serum antibodies were measured by ELISA as previously reported. Briefly, 96-well plates (Thermo Fisher Scientific) were coated with 5 μg/mL of each antigen and dissolved in 0.1 M NaHCO3. […]
(§2) HLA-DR4 transgenic mice were obtained from Taconic, immunized twice (day 0, 14) with 100 μg of MycHSP70 with the same volume of complete Freund’s adjuvant subcutaneously into the tails, and sacrificed on day 21. MACS-purified CD4^+ T cells (1 × 10^5/mL) were cultured with irradiated splenocytes (1 × 10^6/mL) and an antigen (10 μg/mL) in RPMI 1640 medium supplemented with 5% FCS, 2 mM L-glutamine, 100 U/ml penicillin, 100 μg/ml streptomycin, and 5 × 10^−5 M 2-mercaptoethanol in a humidified incubator at 37 °C, 5% CO2, for 72 h. ^3H-thymidine was pulsed to each well, cells were harvested after an 18-hour incubation, and analyzed with a scintillation counter.
(An ELISA detects its analyte on a solid surface through an enzyme-linked reagent.)

Test [1] concerns CD4+ T cells from MycHSP70-immunized HLA-DR4 transgenic mice. Briefly: Splenic CD4+ T cell proliferation from MycHSP70-immunized HLA-DR4 transgenic mice in response to epitopes. The test is classed as cell-based, mouse. The note with it: antigen 10 μg/mL, 72 h, irradiated splenocytes, 3H-thymidine. The method, then:
as §1, §2

A further test has as its system T cells in RA. To be noted: cited from earlier work. The text has this:
MycHSP70 and BiP share 50% of their amino acid sequences, and MycHSP70_287–306 is located at a position corresponding to that of the BiP-derived HLA-DR4 effector epitope. We previously identified two major BiP-derived HLA-DR4 epitopes in RA. […] MycHSP70_287–306 strongly induces proliferation and is regarded as an effector epitope. MycHSP70_287–306 and BiP336–355 share 50% of the amino acids in their core sequences, which bind HLA-DR pockets. They also share the P4V residue, whi ...

Consider “MycHSP70: recombinant Mycobacterial heat shock protein 70 (NCBI GenBank AF2122/97)”, for which the “serum antibody titers to MycHSP70” value in the test on HLA-DR4 transgenic mice (day 0 and 14, serum day 21) is reported as “elevation”. For the same substance, the “serum antibody titers to BiP” value with HLA-DR4 transgenic mice (day 0 and 14, serum day 21, anti-mouse BiP) is on record as “elevation”.
With “RSTMKPVQKVLEDSDLKKSD [BiP336–355, reference compound]”, the “CD4+ T cell proliferation in response to peptide” value in test [1] is “significant proliferation”. The “T cell type recognizing the BiP-derived HLA-DR4 epitope” value in the test on T cells in RA is on record as “recognized by effector T cells”.

The values above are taken from publication PMC4772543, “Immune responses to Mycobacterial heat shock protein 70 accompany self-reactivity to human BiP in rheumatoid arthritis” (Scientific Reports, 2016).
